Laboratory results reported in PubChem BioAssay AID1259407 (Chemical Carcinogenesis Research Information System (CCRIS), 2018).
Active and inactive are the calls of the source. No rule for the calls is given here.

System: CCRIS mutagenicity, Ames/micronucleus/aberration tests
Test: CCRIS mutagenicity studies
[1] = Test System: AMES SALMONELLA TYPHIMURIUM, Strain/Indicator: TA97, Metabolic Activation: NONE, Method: STANDARD PLATE
[2] = Test System: AMES SALMONELLA TYPHIMURIUM, Strain/Indicator: TA97, Metabolic Activation: RAT, LIVER, S-9, AROCLOR 1254, Method: STANDARD PLATE
[3] = Test System: AMES SALMONELLA TYPHIMURIUM, Strain/Indicator: TA98, Metabolic Activation: NONE, Method: STANDARD PLATE
[4] = Test System: AMES SALMONELLA TYPHIMURIUM, Strain/Indicator: TA98, Metabolic Activation: RAT, LIVER, S-9, AROCLOR 1254, Method: STANDARD PLATE
[5] = Test System: AMES SALMONELLA TYPHIMURIUM, Strain/Indicator: TA100, Metabolic Activation: NONE, Method: STANDARD PLATE
[6] = Test System: AMES SALMONELLA TYPHIMURIUM, Strain/Indicator: TA100, Metabolic Activation: RAT, LIVER, S-9, AROCLOR 1254, Method: STANDARD PLATE

Q: With CN1CCC(CN2c3ccccc3Sc3ccccc32)C1 (stereo not given) as the compound, how does the mutagenic call (End Point: IN VITRO CHROMOSOMAL ABERRATIONS, Test System: CHINESE HAMSTER OVARY CELLS, Metabolic Activation: NONE) read?
A: Its mutagenic call is “inactive; negative”.

Q: And the mutagenic call (End Point: IN VITRO CHROMOSOMAL ABERRATIONS, Test System: CHINESE HAMSTER OVARY CELLS, Metabolic Activation: RAT, LIVER, S-9, AROCLOR 1254)?
A: Its mutagenic call is “inactive; negative”.

Q: What about the mutagenic call (Test System: AMES SALMONELLA TYPHIMURIUM, Strain/Indicator: TA97, Metabolic Activation: HAMSTER, LIVER, S-9, AROCLOR 1254 (10 OR 30%), Method: PREINCUBATION) of the same compound?
A: The mutagenic call was “inactive; negative”.

Q: What about the mutagenic call (Test System: AMES SALMONELLA TYPHIMURIUM, Strain/Indicator: TA97, Metabolic Activation: NONE, Method: PREINCUBATION) of the same compound?
A: The mutagenic call was “inactive; negative”.

Q: What about the mutagenic call (Test System: AMES SALMONELLA TYPHIMURIUM, Strain/Indicator: TA97, Metabolic Activation: RAT, LIVER, S-9, AROCLOR 1254 (10 OR 30%), Method: PREINCUBATION) of the same compound?
A: The mutagenic call was “inactive; negative”.

Q: What about the mutagenic call (Test System: AMES SALMONELLA TYPHIMURIUM, Strain/Indicator: TA98, Metabolic Activation: HAMSTER, LIVER, S-9, AROCLOR 1254 (10%), Method: PREINCUBATION) of the same compound?
A: The mutagenic call was “inactive; negative”.

Q: What about the mutagenic call (Test System: AMES SALMONELLA TYPHIMURIUM, Strain/Indicator: TA98, Metabolic Activation: HAMSTER, LIVER, S-9, AROCLOR 1254 (30%), Method: PREINCUBATION) of the same compound?
A: Its mutagenic call is “inactive; negative”.

Q: What about the mutagenic call (Test System: AMES SALMONELLA TYPHIMURIUM, Strain/Indicator: TA98, Metabolic Activation: NONE, Method: PREINCUBATION) of the same compound?
A: Its mutagenic call is “inactive; negative”.

Q: What about the mutagenic call (Test System: AMES SALMONELLA TYPHIMURIUM, Strain/Indicator: TA98, Metabolic Activation: RAT, LIVER, S-9, AROCLOR 1254 (10%), Method: PREINCUBATION) of the same compound?
A: Its mutagenic call is “inactive; negative”.

Q: And the mutagenic call (Test System: AMES SALMONELLA TYPHIMURIUM, Strain/Indicator: TA98, Metabolic Activation: RAT, LIVER, S-9, AROCLOR 1254 (30%), Method: PREINCUBATION)?
A: Its mutagenic call is “inactive; negative”.

Q: And the mutagenic call (Test System: AMES SALMONELLA TYPHIMURIUM, Strain/Indicator: TA100, Metabolic Activation: HAMSTER, LIVER, S-9, AROCLOR 1254 (10%), Method: PREINCUBATION)?
A: The mutagenic call was “inactive; negative”.

Q: And the mutagenic call (Test System: AMES SALMONELLA TYPHIMURIUM, Strain/Indicator: TA100, Metabolic Activation: HAMSTER, LIVER, S-9, AROCLOR 1254 (30%), Method: PREINCUBATION)?
A: Its mutagenic call is “inactive; negative”.

Q: What about the mutagenic call (Test System: AMES SALMONELLA TYPHIMURIUM, Strain/Indicator: TA100, Metabolic Activation: NONE, Method: PREINCUBATION) of the same compound?
A: The mutagenic call was “inactive; negative”.

Q: And the mutagenic call (Test System: AMES SALMONELLA TYPHIMURIUM, Strain/Indicator: TA100, Metabolic Activation: RAT, LIVER, S-9, AROCLOR 1254 (10%), Method: PREINCUBATION)?
A: The mutagenic call was “inactive; negative”.

Q: And the mutagenic call (Test System: AMES SALMONELLA TYPHIMURIUM, Strain/Indicator: TA100, Metabolic Activation: RAT, LIVER, S-9, AROCLOR 1254 (30%), Method: PREINCUBATION)?
A: Its mutagenic call is “inactive; negative”.

Q: What about the mutagenic call (Test System: AMES SALMONELLA TYPHIMURIUM, Strain/Indicator: TA1535, Metabolic Activation: HAMSTER, LIVER, S-9, AROCLOR 1254 (10%), Method: PREINCUBATION) of the same compound?
A: Its mutagenic call is “inactive; negative”.

Q: And the mutagenic call (Test System: AMES SALMONELLA TYPHIMURIUM, Strain/Indicator: TA1535, Metabolic Activation: HAMSTER, LIVER, S-9, AROCLOR 1254 (30%), Method: PREINCUBATION)?
A: The mutagenic call was “inactive; negative”.

Q: What about the mutagenic call (Test System: AMES SALMONELLA TYPHIMURIUM, Strain/Indicator: TA1535, Metabolic Activation: NONE, Method: PREINCUBATION) of the same compound?
A: The mutagenic call was “inactive; negative”.

Q: And the mutagenic call (Test System: AMES SALMONELLA TYPHIMURIUM, Strain/Indicator: TA1535, Metabolic Activation: RAT, LIVER, S-9, AROCLOR 1254 (10%), Method: PREINCUBATION)?
A: Its mutagenic call is “inactive; negative”.

Q: What about the mutagenic call (Test System: AMES SALMONELLA TYPHIMURIUM, Strain/Indicator: TA1535, Metabolic Activation: RAT, LIVER, S-9, AROCLOR 1254 (30%), Method: PREINCUBATION) of the same compound?
A: Its mutagenic call is “inactive; negative”.

Q: And the mutagenic call (Test System: AMES SALMONELLA TYPHIMURIUM, Strain/Indicator: TA1537, Metabolic Activation: HAMSTER, LIVER, S-9, AROCLOR 1254 (10%), Method: PREINCUBATION)?
A: Its mutagenic call is “inactive; negative”.

Q: And the mutagenic call (Test System: AMES SALMONELLA TYPHIMURIUM, Strain/Indicator: TA1537, Metabolic Activation: NONE, Method: PREINCUBATION)?
A: Its mutagenic call is “inactive; negative”.

Q: What about the mutagenic call (Test System: AMES SALMONELLA TYPHIMURIUM, Strain/Indicator: TA1537, Metabolic Activation: RAT, LIVER, S-9, AROCLOR 1254 (10%), Method: PREINCUBATION) of the same compound?
A: The mutagenic call was “inactive; negative”.

Q: For CC=C(C)C(=O)O[C@H]1[C@H](OC(C)=O)[C@]2(CO)[C@H](O)C[C@]3(C)C(=CC[C@@H]4[C@@]5(C)CC[C@@H](O[C@@H]6O[C@H](C(=O)O)[C@@H](O[C@@H]7O[C@H](CO)[C@@H](O)[C@H](O)[C@H]7O)[C@H](O)[C@H]6O[C@@H]6O[C@H](CO)[C@@H](O)[C@H](O)[C@H]6O)[C@](C)(CO)[C@@H]5CC[C@]43C)[C@@H]2CC1(C)C, which mutagenic call [1] is on record?
A: The mutagenic call was “inactive; negative”.

Q: What about the mutagenic call [2] of the same compound?
A: The mutagenic call was “inactive; negative”.

Q: And the mutagenic call [3]?
A: The mutagenic call was “inactive; negative”.

Q: And the mutagenic call [4]?
A: The mutagenic call was “inactive; negative”.

Q: What about the mutagenic call [5] of the same compound?
A: Its mutagenic call is “inactive; negative”.

Q: What about the mutagenic call [6] of the same compound?
A: Its mutagenic call is “inactive; negative”.

Q: And the mutagenic call (Test System: AMES SALMONELLA TYPHIMURIUM, Strain/Indicator: TA102, Metabolic Activation: NONE, Method: STANDARD PLATE)?
A: Its mutagenic call is “inactive; negative”.

Q: And the mutagenic call (Test System: AMES SALMONELLA TYPHIMURIUM, Strain/Indicator: TA102, Metabolic Activation: RAT, LIVER, S-9, AROCLOR 1254, Method: STANDARD PLATE)?
A: The mutagenic call was “inactive; negative”.

Q: With Nc1cc(CCO)c(N)c([N+](=O)[O-])c1 as the compound, how does the mutagenic call [3] read?
A: Its mutagenic call is “active; positive”.

Q: What about the mutagenic call [4] of the same compound?
A: The mutagenic call was “active; positive”.

Q: And the mutagenic call [5]?
A: Its mutagenic call is “inactive; negative”.

Q: And the mutagenic call [6]?
A: Its mutagenic call is “active; positive”.

Q: And the mutagenic call (Test System: AMES SALMONELLA TYPHIMURIUM, Strain/Indicator: TA1535, Metabolic Activation: NONE, Method: STANDARD PLATE)?
A: The mutagenic call was “inactive; negative”.

Q: What about the mutagenic call (Test System: AMES SALMONELLA TYPHIMURIUM, Strain/Indicator: TA1535, Metabolic Activation: RAT, LIVER, S-9, AROCLOR 1254, Method: STANDARD PLATE) of the same compound?
A: Its mutagenic call is “inactive; negative”.

Q: And the mutagenic call (Test System: AMES SALMONELLA TYPHIMURIUM, Strain/Indicator: TA1537, Metabolic Activation: NONE, Method: STANDARD PLATE)?
A: The mutagenic call was “inactive; negative”.

Q: And the mutagenic call (Test System: AMES SALMONELLA TYPHIMURIUM, Strain/Indicator: TA1537, Metabolic Activation: RAT, LIVER, S-9, AROCLOR 1254, Method: STANDARD PLATE)?
A: Its mutagenic call is “inactive; negative”.

Q: And the mutagenic call (Test System: AMES SALMONELLA TYPHIMURIUM, Strain/Indicator: TA1538, Metabolic Activation: NONE, Method: STANDARD PLATE)?
A: Its mutagenic call is “active; positive”.

Q: What about the mutagenic call (Test System: AMES SALMONELLA TYPHIMURIUM, Strain/Indicator: TA1538, Metabolic Activation: RAT, LIVER, S-9, AROCLOR 1254, Method: STANDARD PLATE) of the same compound?
A: The mutagenic call was “active; positive”.

Q: What does the source list for COP(=O)(SC)SC?
A: mutagenic call [1]: inactive; negative; mutagenic call (Test System: AMES SALMONELLA TYPHIMURIUM, Strain/Indicator: TA97, Metabolic Activation: RAT, LIVER, S-9, AROCLOR 1254, Method: PREINCUBATION): inactive; negative; mutagenic call [2]: inactive; negative; mutagenic call [3]: inactive; negative; mutagenic call (Test System: AMES SALMONELLA TYPHIMURIUM, Strain/Indicator: TA98, Metabolic Activation: RAT, LIVER, S-9, AROCLOR 1254, Method: PREINCUBATION): inactive; negative; mutagenic call [4]: inactive; negative; mutagenic call [5]: inactive; negative; mutagenic call (Test System: AMES SALMONELLA TYPHIMURIUM, Strain/Indicator: TA100, Metabolic Activation: RAT, LIVER, S-9, AROCLOR 1254, Method: PREINCUBATION): inactive; negative; mutagenic call [6]: inactive; negative

Q: How did the mutagenic call (Test System: AMES SALMONELLA TYPHIMURIUM, Strain/Indicator: TA100, Metabolic Activation: MOUSE, LIVER, S-9, AROCLOR 1254, Method: STANDARD PLATE) turn out when CN(Cc1ccccc1)C(=O)CBr was run?
A: The mutagenic call was “inactive; negative”.

Q: What about the mutagenic call [5] of the same compound?
A: Its mutagenic call is “inactive; negative”.

Q: What does the source list for CC1(C)C[C@H]2C=C(C=O)[C@]34C[C@]3(C(=O)O[C@@H]4O)[C@H]2C1?
A: mutagenic call (Test System: AMES SALMONELLA TYPHIMURIUM, Strain/Indicator: TA98, Metabolic Activation: NONE, Method: SPOT TEST): active; positive; mutagenic call [3]: active; positive; mutagenic call (Test System: AMES SALMONELLA TYPHIMURIUM, Strain/Indicator: TA100, Metabolic Activation: NONE, Method: SPOT TEST): inactive; negative; mutagenic call [5]: active; positive; mutagenic call (Test System: AMES SALMONELLA TYPHIMURIUM, Strain/Indicator: TA1535, Metabolic Activation: NONE, Method: SPOT TEST): inactive; negative; mutagenic call (Test System: AMES SALMONELLA TYPHIMURIUM, Strain/Indicator: TA1538, Metabolic Activation: NONE, Method: SPOT TEST): inactive; negative; mutagenic call (Test System: AMES SALMONELLA TYPHIMURIUM, Strain/Indicator: TA2637, Metabolic Activation: NONE, Method: STANDARD PLATE): active; positive; mutagenic call (Test System: CHINESE HAMSTER V-79, Strain/Indicator: V-79/6-THIOGUANINE (HGPRT), Metabolic Activation: NONE): inactive; negative
